Test results published in paper PMC6102747 (Molecular Medicine Reports, 2018).

Columns and labels:
Format in all cases: in vivo, rats
Details in all cases: vs control
OATP2B1 = test: Western blot protein expression in small intestine
Gstm1 = test: RT-qPCR mRNA expression in liver
Slco2b1 = test: RT-qPCR mRNA expression in small intestine
Sult1a1 = test: RT-qPCR mRNA expression in small intestine and liver
Bcrp = test: as above
Car = test: Western blot protein expression in small intestine and liver
[1] = high-dose Q3GA 10 mg/kg i.v. 7 days, P<0.01
[2] = low-dose Q3GA 2.5 mg/kg i.v. 7 days, P<0.001
[3] = middle-dose Q3GA 5 mg/kg i.v. 7 days
[4] = small intestine, high-dose Q3GA 10 mg/kg i.v. 7 days, P<0.01
[5] = small intestine, low-dose Q3GA 2.5 mg/kg i.v. 7 days, P<0.001
[6] = small intestine, middle-dose Q3GA 5 mg/kg i.v. 7 days, P<0.05
[7] = liver, high-dose Q3GA 10 mg/kg i.v. 7 days, not significant
[8] = liver, low-dose Q3GA 2.5 mg/kg i.v. 7 days, P<0.01
[9] = liver, middle-dose Q3GA 5 mg/kg i.v. 7 days, not significant

O=c1c(O[C@@H]2O[C@H](CO)[C@@H](O)[C@H](O)[C@H]2O)c(-c2ccc(O)c(O)c2)oc2cc(O)cc(O)c12 [Q3GA, Quercetin-3-O-β-D-glucoside]
decrease in OATP2B1 protein expression (OATP2B1; [1]): 51.44%
decrease in OATP2B1 protein expression (OATP2B1; [2]): 86.44%
decrease in OATP2B1 protein expression (OATP2B1; middle-dose Q3GA 5 mg/kg i.v. 7 days, P<0.01): 42.21%
increase in Gstm1 mRNA expression (Gstm1; high-dose Q3GA 10 mg/kg i.v. 7 days): 75.09%
increase in Gstm1 mRNA expression (Gstm1; [2]): 248.40%
increase in Gstm1 mRNA expression (Gstm1; [3]): 85.41%
decrease in Slco2b1 mRNA expression (Slco2b1; [1]): 39.57%
decrease in Slco2b1 mRNA expression (Slco2b1; [2]): 62.19%
decrease in Slco2b1 mRNA expression (Slco2b1; [3]): 20.49%
decrease in Sult1a1 mRNA expression (Sult1a1; liver, high-dose Q3GA 10 mg/kg i.v. 7 days): 18.39%
decrease in Sult1a1 mRNA expression (Sult1a1; liver, low-dose Q3GA 2.5 mg/kg i.v. 7 days, P<0.001): 58.06%
decrease in Sult1a1 mRNA expression (Sult1a1; liver, middle-dose Q3GA 5 mg/kg i.v. 7 days, P<0.05): 31.94%
decrease in Sult1a1 mRNA expression (Sult1a1; [4]): 52.02%
decrease in Sult1a1 mRNA expression (Sult1a1; [5]): 64.54%
decrease in Sult1a1 mRNA expression (Sult1a1; [6]): 33.80%
decrease in Bcrp mRNA expression (Bcrp; [7]): 29.23%
decrease in Bcrp mRNA expression (Bcrp; [8]): 56.15%
decrease in Bcrp mRNA expression (Bcrp; [9]): 29.23%
decrease in Bcrp mRNA expression (Bcrp; [4]): 43.68%
decrease in Bcrp mRNA expression (Bcrp; [5]): 63.83%
decrease in Bcrp mRNA expression (Bcrp; [6]): 27.52%
increase in CAR protein expression (Car; [7]): 211.76%
increase in CAR protein expression (Car; [8]): 456.37%
increase in CAR protein expression (Car; [9]): 208.32%
increase in CAR protein expression (Car; [4]): 91.07%
increase in CAR protein expression (Car; [5]): 235.46%
increase in CAR protein expression (Car; small intestine, middle-dose Q3GA 5 mg/kg i.v. 7 days, P<0.01): 78.59%
